Results published in US20250101041A1, “POSITIVE ALLOSTERIC MODULATORS OF THE MUSCARINIC ACETYLCHOLINE RECEPTOR M4” (Vanderbilt University, priority 2022, published 2025).

Molecular target: T1, human mAChR M4 (Homo sapiens, UniProt P08173)
T1 construct: expressed in transfected cells; host or cells: CHO-K1 (American Type Culture Collection), stably expressing hM4 and Gqi5
T1 sequence (P08173 1-479): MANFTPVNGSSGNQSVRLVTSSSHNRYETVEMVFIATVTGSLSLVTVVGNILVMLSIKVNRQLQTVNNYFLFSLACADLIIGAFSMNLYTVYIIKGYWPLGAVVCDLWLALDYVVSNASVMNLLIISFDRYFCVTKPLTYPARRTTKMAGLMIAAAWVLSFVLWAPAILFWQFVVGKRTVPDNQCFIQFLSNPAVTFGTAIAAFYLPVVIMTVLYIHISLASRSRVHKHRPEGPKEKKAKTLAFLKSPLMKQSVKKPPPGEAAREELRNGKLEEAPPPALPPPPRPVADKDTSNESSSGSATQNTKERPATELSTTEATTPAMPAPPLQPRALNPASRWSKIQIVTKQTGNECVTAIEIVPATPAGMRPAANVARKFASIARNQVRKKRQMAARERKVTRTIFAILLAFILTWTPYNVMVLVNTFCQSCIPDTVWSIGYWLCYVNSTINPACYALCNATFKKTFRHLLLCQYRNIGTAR
Assay: mAChR M4 cell-based functional assay: calcium mobilization (Fluo-4, FDSS), potentiation of EC20 acetylcholine response in hM4-Gqi5 CHO-K1 cells
Conditions: human M4; for Emax at 30 µM: CHO-K1, % ACh maximum at 30 μM; for EC50: potentiation of EC20 acetylcholine response, calcium mobilization
How it was run: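 CHO-K1 cells stably co-expressing human M4 and chimeric Gqi5, loaded with Fluo-4 AM (50 min, 37 °C). Compounds in 11-point 1:3 series added first; EC20 acetylcholine added at 144 s and again at 230 s. Calcium read on FDSS at 1 Hz; EC50 and Emax from four-parameter logistic fit of potentiated EC20 response.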

Row | Compound | Emax at 30 µM [%] | EC50 [nM]
1 | Cc1cc(=O)n2nc(N3CCc4ncc(N5CCOc6ncccc65)cc4C3)c(C)cc2n1 [Compound 2-17, 7-(3-(2,3-dihydro-1H-pyrido[2,3-b][1,4]oxazin-1-yl)-7,8-dihydro-1,6-naphthyridin-6(5H)-yl)-2,8-dimethyl-4H-pyrimido[1,2-b]pyridazin-4-one] | 98 | 9
2 | Cc1cc(=O)n2nc(N3CCc4ncc(N5CCO[C@H](C)C5)cc4C3)c(C)cc2n1 [Compound 2-18, (R)-2,8-dimethyl-7-(3-(2-methylmorpholino)-7,8-dihydro-1,6-naphthyridin-6(5H)-yl)-4H-pyrimido[1,2-b]pyridazin-4-one] | 92 | 80
3 | Cc1cc(=O)n2nc(N3CCc4ncc(Nc5cccnc5F)cc4C3)c(C)cc2n1 [Compound 2-19, 7-(3-((2-fluoropyridin-3-yl)amino)-7,8-dihydro-1,6-naphthyridin-6(5H)-yl)-2,8-dimethyl-4H-pyrimido[1,2-b]pyridazin-4-one] | 79 | 60
4 | Cc1cc(=O)n2nc(N3CCc4ncc(Nc5ccnn5C)cc4C3)c(C)cc2n1 [Compound 2-20, 2,8-dimethyl-7-(3-((1-methyl-1H-pyrazol-5-yl)amino)-7,8-dihydro-1,6-naphthyridin-6(5H)-yl)-4H-pyrimido[1,2-b]pyridazin-4-one] | 88 | 166
5 | Cc1cc(=O)n2nc(N3CCc4ncc(N5CCCn6nc(C)cc65)cc4C3)c(C)cc2n1 [Compound 2-21, 2,8-dimethyl-7-(3-(2-methyl-6,7-dihydropyrazolo[1,5-a]pyrimidin-4(5H)-yl)-7,8-dihydro-1,6-naphthyridin-6(5H)-yl)-4H-pyrimido[1,2-b]pyridazin-4-one] | 87 | 37
6 | Cc1cc(=O)n2nc(N3CCc4ncc(-n5cccn5)cc4C3)c(C)cc2n1 [Compound 2-22, 7-(3-(1H-pyrazol-1-yl)-7,8-dihydro-1,6-naphthyridin-6(5H)-yl)-2,8-dimethyl-4H-pyrimido[1,2-b]pyridazin-4-one] | 56 | 97
7 | Cc1cc(=O)n2nc(N3CCc4ncc(N5CCCn6nccc65)cc4C3)c(C)c(C)c2n1 [Compound 2-23, 7-(3-(6,7-dihydropyrazolo[1,5-a]pyrimidin-4(5H)-yl)-7,8-dihydro-1,6-naphthyridin-6(5H)-yl)-2,8,9-trimethyl-4H-pyrimido[1,2-b]pyridazin-4-one] | 83 | 18
8 | Cc1cc2nc(C(F)F)cc(=O)n2nc1N1CCc2ncc(N3CCOC(C)(C)C3)cc2C1 [Compound 2-24, 2-(difluoromethyl)-7-(3-(2,2-dimethylmorpholino)-7,8-dihydro-1,6-naphthyridin-6(5H)-yl)-8-methyl-4H-pyrimido[1,2-b]pyridazin-4-one] | 95 | 51
9 | Cc1cc2nc(C(F)F)cc(=O)n2nc1N1CCc2ncc(N3CCO[C@H](C)C3)cc2C1 [Compound 2-25, (R)-2-(difluoromethyl)-8-methyl-7-(3-(2-methylmorpholino)-7,8-dihydro-1,6-naphthyridin-6(5H)-yl)-4H-pyrimido[1,2-b]pyridazin-4-one] | 90 | 209
10 | Cc1cc2nc(C(F)F)cc(=O)n2nc1N1CCc2ncc(-n3cccn3)cc2C1 [Compound 2-26, 7-(3-(1H-pyrazol-1-yl)-7,8-dihydro-1,6-naphthyridin-6(5H)-yl)-2-(difluoromethyl)-8-methyl-4H-pyrimido[1,2-b]pyridazin-4-one] | 87 | 105
11 | Cc1cc2nc(C(F)F)cc(=O)n2nc1N1CCc2ncc(Nc3ccnn3C)cc2C1 [Compound 2-27, 2-(difluoromethyl)-8-methyl-7-(3-((1-methyl-1H-pyrazol-5-yl)amino)-7,8-dihydro-1,6-naphthyridin-6(5H)-yl)-4H-pyrimido[1,2-b]pyridazin-4-one] | 86 | 41
12 | Cc1cc2n(n1)CCCN2c1cnc2c(c1)CN(c1nn3c(=O)cc(C(F)F)nc3cc1C)CC2 [Compound 2-28, 2-(difluoromethyl)-8-methyl-7-(3-(2-methyl-6,7-dihydropyrazolo[1,5-a]pyrimidin-4(5H)-yl)-7,8-dihydro-1,6-naphthyridin-6(5H)-yl)-4H-pyrimido[1,2-b]pyridazin-4-one] | 85 | 19
13 | Cc1cc2nc(C(F)F)cc(=O)n2nc1N1CCc2ncc(N3CCOc4ncccc43)cc2C1 [Compound 2-29, 2-(difluoromethyl)-7-(3-(2,3-dihydro-1H-pyrido[2,3-b][1,4]oxazin-1-yl)-7,8-dihydro-1,6-naphthyridin-6(5H)-yl)-8-methyl-4H-pyrimido[1,2-b]pyridazin-4-one] | 90 | 13
14 | Cc1c(N2CCc3ncc(N4CCCn5nccc54)cc3C2)nn2c(=O)cc(C(F)(F)F)nc2c1C [Compound 2-30, 7-(3-(6,7-dihydropyrazolo[1,5-a]pyrimidin-4(5H)-yl)-7,8-dihydro-1,6-naphthyridin-6(5H)-yl)-8,9-dimethyl-2-(trifluoromethyl)-4H-pyrimido[1,2-b]pyridazin-4-one] | 83 | 20
15 | Cc1c(N2CCc3ncc(N4CCCn5nccc54)cc3C2)nn2c(=O)cc(C(F)F)nc2c1C [Compound 2-31, 2-(difluoromethyl)-7-(3-(6,7-dihydropyrazolo[1,5-a]pyrimidin-4(5H)-yl)-7,8-dihydro-1,6-naphthyridin-6(5H)-yl)-8,9-dimethyl-4H-pyrimido[1,2-b]pyridazin-4-one] | 91 | 14
16 | Cc1c(N2CCc3ncc(N4CCO[C@H](C)C4)cc3C2)nn2c(=O)ccnc2c1C [Compound 2-32, (R)-8,9-dimethyl-7-(3-(2-methylmorpholino)-7,8-dihydro-1,6-naphthyridin-6(5H)-yl)-4H-pyrimido[1,2-b]pyridazin-4-one] | 94 | 84
17 | Cc1c(N2CCc3ncc(N4CCOc5ncccc54)cc3C2)nn2c(=O)ccnc2c1C [Compound 2-33, 7-(3-(2,3-dihydro-1H-pyrido[2,3-b][1,4]oxazin-1-yl)-7,8-dihydro-1,6-naphthyridin-6(5H)-yl)-8,9-dimethyl-4H-pyrimido[1,2-b]pyridazin-4-one] | 89 | 15
18 | Cc1c(N2CCc3ncc(-n4cccn4)cc3C2)nn2c(=O)ccnc2c1C [Compound 2-34, 7-(3-(1H-pyrazol-1-yl)-7,8-dihydro-1,6-naphthyridin-6(5H)-yl)-8,9-dimethyl-4H-pyrimido[1,2-b]pyridazin-4-one] | 77 | 318
19 | Cc1cc2n(n1)CCCN2c1cnc2c(c1)CN(c1nn3c(=O)ccnc3c(C)c1C)CC2 [Compound 2-35, 8,9-dimethyl-7-(3-(2-methyl-6,7-dihydropyrazolo[1,5-a]pyrimidin-4(5H)-yl)-7,8-dihydro-1,6-naphthyridin-6(5H)-yl)-4H-pyrimido[1,2-b]pyridazin-4-one] | 96 | 46
20 | Cc1c(N2CCc3ncc(N4CCCn5nccc54)cc3C2)nn2c(=O)ccnc2c1C [Compound 2-36, 7-(3-(6,7-dihydropyrazolo[1,5-a]pyrimidin-4(5H)-yl)-7,8-dihydro-1,6-naphthyridin-6(5H)-yl)-8,9-dimethyl-4H-pyrimido[1,2-b]pyridazin-4-one] | 103 | 13
21 | Cc1cc(=O)n2nc(N3CCc4ncc(N5CC6CC5CO6)cc4C3)c(C)c(C)c2n1 (centres unmarked) [Compound 2-37, 7-(3-(2-oxa-5-azabicyclo[2.2.1]heptan-5-yl)-7,8-dihydro-1,6-naphthyridin-6(5H)-yl)-2,8,9-trimethyl-4H-pyrimido[1,2-b]pyridazin-4-one] | 81 | 1340
22 | Cc1cc(=O)n2nc(N3CCc4ncc(N5C[C@@H](C)O[C@@H](C)C5)cc4C3)c(C)c(C)c2n1 [Compound 2-38, 7-(3-((2R,6S)-2,6-dimethylmorpholino)-7,8-dihydro-1,6-naphthyridin-6(5H)-yl)-2,8,9-trimethyl-4H-pyrimido[1,2-b]pyridazin-4-one] | 76 | 1300
23 | Cc1cc(=O)n2nc(N3CCc4ncc(N5CCOC(C)(C)C5)cc4C3)c(C)c(C)c2n1 [Compound 2-39, 7-(3-(2,2-dimethylmorpholino)-7,8-dihydro-1,6-naphthyridin-6(5H)-yl)-2,8,9-trimethyl-4H-pyrimido[1,2-b]pyridazin-4-one] | 96 | 123
24 | Cc1c(N2CCc3ncc(N4CCOC(C)(C)C4)cc3C2)nn2c(=O)cc(C(F)F)nc2c1C [Compound 2-40, 2-(difluoromethyl)-7-(3-(2,2-dimethylmorpholino)-7,8-dihydro-1,6-naphthyridin-6(5H)-yl)-8,9-dimethyl-4H-pyrimido[1,2-b]pyridazin-4-one] | 90 | 29
25 | Cc1c(N2CCc3ncc(N4C[C@@H](C)O[C@@H](C)C4)cc3C2)nn2c(=O)cc(C(F)F)nc2c1C [Compound 2-41, 2-(difluoromethyl)-7-(3-((2R,6S)-2,6-dimethylmorpholino)-7,8-dihydro-1,6-naphthyridin-6(5H)-yl)-8,9-dimethyl-4H-pyrimido[1,2-b]pyridazin-4-one] | 96 | 822
